Consider four compounds from patent publication US5703069A, “Method for inhibiting and controlling viral growth” (Warner-Lambert Company, priority 1996, dated 1997).

The subject of series [1] is OM-10.1 cells. The series is described as follows: inhibition of HIV-1 activation / HIV expression in chronically infected OM-10.1 cells (TNF-α induced). Type of series: cell-based, human immunodeficiency virus type 1 (HIV-1). Conditions: Human immunodeficiency virus 1. The text has this: The cellular pathways involved in mediating the activating signal from the plasma membrane to the integrated virus, resulting in HIV-1 expression, are much less clear. Recently, the development of a reliable and simple system for evaluating compounds that could prevent activation of latent HIV was reported at a National Cooperative Discovery Grant (NCDDG)/AIDS meeting by P. Feorino, S. T. Butera, T. M. Folks, and R. F. Schinazi, Nov. 3-7, 1991. The assay system employed the OM-10.1 cell line, a unique chronically-infected promyelocytic clone which remains CD4+ until HIV-1 activation with tumor necrosis factor-α. The expression of CD4+ on the cell surface and the activity of reverse transcriptase are used as markers for quantitating viral expression. Alternatively, other HIV markers, such as protease activity, which are known to those of skill in the art can be used. OM-10.1 cells remain CD4+ until viral activation and respond to tumor necrosis factor induction, and therefore, these cultures are used to conveniently and rapidly examine pharmacologics for an ability to prevent CD4+ down modulation (decrease in expression of CD4+ on the cell surface) and HIV-1 expression.
A variety of compounds known to have antiviral properties against either acutely or chronically infected cells were evaluated for their ability to inhibit HIV expression in these OM-10.1 cells. […]

The next series deals with Vero cells. Conditions: monkey, 120 h. Here is the method:
This screen was designed to identify compounds which inhibit HSV-1 in phases of its life cycle from adsorption and penetration through late gene expression. The primary screen, AVUS1, involves adding single compounds to a monolayer of Vero cells to a final concentration of 25 μg/mL, then infecting the cells with a recombinant HSV-1, Us3::Tn5-lacZ. This virus contains an insertion of a lacZ gene driven by a viral late promoter in the US3 protein kinase gene of HSV-1. The infection is allowed to proceed for 20 hours, then the cells are lysed with a solution of Triton X-100 and CPRG in "Z" buffer and assayed for β-galactosidase activity. The positive control used is solvent alone without compound, which corresponds to 0% inhibition, and the negative control used is either no virus added to the wells or 0.5% Triton X-100 added to the wells, which corresponds to 100% inhibition. Percent inhibition of a compound is then calculated using these positive and negative controls. […] In AVUS3, the test compound is dissolved in MeOH at 20 mM. A titration of the compound is then assayed in both the same β-galactosidase virus replication inhibition assay and a 5-day XTT toxicity assay. […]

For the next series, the system named is wild type HSV-1. The series is described as follows: PRA (plaque reduction assay with wild type HSV-1). The class given is cell-based. Particulars: read-out: IC50 Inhibitory Activity (PRA).
A further series relates to herpesvirus. The series is described as follows: SGC anti-herpesvirus assay. The class given is cell-based. Conditions: read-out: IC50 Inhibitory Activity (SGC).
Series [2] relates to TPA-mediated CD4 down regulation and HIV expression. Conditions: Hamamoto et al. 1989; cited from earlier work.
For series [3], the system named is OM-10.1 cells. Conditions: NCDDG/AIDS poster, San Diego, Nov. 3-7 (1991); cited from earlier work.

Structures are written as SMILES. Like-named read-outs stand apart in the source and are kept apart here.

A word on the IC50: it is the concentration at which inhibition is half-maximal. Broadly, the CC50 is the concentration that lowers cell viability or growth by half.

For `COc1ccc2sc3c(c2c1)SCCNC3=O` [2,3-Dihydro-9-methoxy[1]benzothieno[2,3-f]-1,4-thiazepin-5(4H)-one], the IC50 with OM-10.1 cells [1] turned out to be 210 nM; in the series on wild type HSV-1 (Human alphaherpesvirus 1, PRA) it was 450 nM; with wild type HSV-1 (PRA) it was 550 nM; in the series with herpesvirus, 350 nM. Further, the CC50 in the series with Vero cells is 60000 nM.

For `CCCCCCCCCCCCCC(=O)O[C@@H]1[C@@H](C)[C@@]2(O)[C@@H](C=C(CO)C[C@]3(O)C(=O)C(C)=C[C@@H]23)[C@@H]2C(C)(C)[C@]12OC(C)=O` [12-O-tetradecanoylphorbol-13-acetate], the “effect on CD4 and viral expression in HIV-infected cells (in words)” value in series [2] was “mediates CD4 down regulation and viral expression in HIV-infected cells”.

Consider `Cc1cn([C@H]2C[C@H](F)[C@@H](CO)O2)c(=O)[nH]c1=O` [3'-fluoro-3'-deoxythymidine (FLT), 3'-fluoro-3'-deoxythymidine], for which the “inhibition of the activation of HIV-1 (in words)” value in the series with OM-10.1 cells [3] is reported as “modest inhibitors of the activation of HIV-1”.

Turning to `CC(=O)N(O)CCCCCNC(=O)CCC(=O)N(O)CCCCCNC(=O)CCC(=O)N(O)CCCCCN` [desferrioxamine], the “inhibition of the activation of HIV-1 (in words)” value with OM-10.1 cells [3] is on record as “modest inhibitors of the activation of HIV-1”.
